According to EP4748847A1, “PEPTIDE COMPLEX HAVING VEGFR -2 AGONIST ACTIVITY” (Peptidream Inc, priority 2023, dated 2025):
*1 amine or outer side, *2 acyl side, *3 side chain or, on linkers, in order; H or OH if unused. Where a SMILES comes first, the peptide text is derived from it. Bridges are numbered along the chain shown (N, C = ends). Roman numbers before positions name the chains, in order. [ ]: non-standard residue; d: D form. CO(CH2)2(OCH2CH2)17CO = O=C(CCOCCOCCOCCOCCOCCOCCOCCOCCOCCOCCOCCOCCOCCOCCOCCOCCOCCC(=O)[*:2])[*:1]; X2 = O=C(OCCOCCOCCOCCOCCOCCOCCOCCOCCOCCOCCOCCOC(=O)[*:2])[*:1]; Phe(4-guanidino) = N=C(N)Nc1ccc(C[C@H](N)C(=O)O)cc1; Trp(7-aza) = N[C@@H](Cc1c[nH]c2ncccc12)C(=O)O; hTyr = N[C@@H](CCc1ccc(O)cc1)C(=O)O; Hyp = O=C(O)[C@@H]1C[C@@H](O)CN1; tBuAla = CC(C)(C)C[C@H](N)C(=O)O; Chg = N[C@H](C(=O)O)C1CCCCC1; Tle = CC(C)(C)[C@H](N)C(=O)O

Molecular target: T1, VEGFR-2 (Homo sapiens, UniProt P35968)
T1 construct: endogenous in cells; host or cells: HUVEC
T1 sequence (P35968 20-1356): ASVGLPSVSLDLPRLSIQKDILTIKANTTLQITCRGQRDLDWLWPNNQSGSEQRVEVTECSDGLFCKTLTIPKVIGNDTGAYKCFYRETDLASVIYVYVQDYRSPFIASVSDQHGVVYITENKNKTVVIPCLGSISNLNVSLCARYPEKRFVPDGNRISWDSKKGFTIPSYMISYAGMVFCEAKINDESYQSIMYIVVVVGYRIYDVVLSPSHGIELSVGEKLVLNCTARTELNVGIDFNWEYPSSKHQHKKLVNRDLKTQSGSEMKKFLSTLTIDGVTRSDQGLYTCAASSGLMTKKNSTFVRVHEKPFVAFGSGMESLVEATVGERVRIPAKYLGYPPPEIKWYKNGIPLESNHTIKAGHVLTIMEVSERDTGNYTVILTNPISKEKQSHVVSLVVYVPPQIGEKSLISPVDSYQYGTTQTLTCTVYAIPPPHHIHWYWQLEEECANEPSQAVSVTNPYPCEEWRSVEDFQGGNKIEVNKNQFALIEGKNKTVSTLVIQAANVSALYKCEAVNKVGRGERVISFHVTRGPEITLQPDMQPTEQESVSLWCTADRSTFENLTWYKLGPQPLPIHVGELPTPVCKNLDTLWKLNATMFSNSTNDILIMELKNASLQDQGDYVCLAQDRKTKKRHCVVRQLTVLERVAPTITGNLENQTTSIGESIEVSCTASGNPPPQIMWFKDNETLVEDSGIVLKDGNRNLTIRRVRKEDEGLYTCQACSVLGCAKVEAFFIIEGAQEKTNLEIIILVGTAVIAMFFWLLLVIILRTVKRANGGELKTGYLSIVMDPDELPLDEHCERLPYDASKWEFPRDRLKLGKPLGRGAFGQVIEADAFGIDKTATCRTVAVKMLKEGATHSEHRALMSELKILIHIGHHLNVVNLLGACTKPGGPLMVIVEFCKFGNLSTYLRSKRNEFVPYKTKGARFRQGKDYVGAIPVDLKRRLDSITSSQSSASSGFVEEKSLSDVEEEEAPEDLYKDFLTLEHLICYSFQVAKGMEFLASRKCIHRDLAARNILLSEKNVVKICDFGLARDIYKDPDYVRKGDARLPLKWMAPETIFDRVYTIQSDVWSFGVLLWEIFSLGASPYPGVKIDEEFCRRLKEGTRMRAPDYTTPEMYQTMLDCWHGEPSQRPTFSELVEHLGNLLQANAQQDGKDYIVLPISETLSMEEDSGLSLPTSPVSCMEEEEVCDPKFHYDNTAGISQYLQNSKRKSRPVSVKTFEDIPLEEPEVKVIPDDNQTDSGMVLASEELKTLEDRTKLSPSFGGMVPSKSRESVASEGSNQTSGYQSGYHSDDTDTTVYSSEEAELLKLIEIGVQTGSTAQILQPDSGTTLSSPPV
Assay: pVEGFR AlphaLISA assay (VEGFR-2 phosphorylation, p-Tyr1175) in HUVECs
Assay type: cell-based
Conditions: 10 minutes stimulation, % activity, maximum VEGF165a signal = 100%, unstimulated = 0%
Method: To evaluate the VEGFR-2 activation ability of the VEGFR-2 agonist peptides of the present invention, VEGFR-2 phosphorylation was verified. HUVECs were cultured using EGM™ -2 Endothelial Cell Growth Medium-2 BulletKit (LONZA; CC-3162). After detaching cells using Tryple (Thermo Fisher Scientific), they were seeded into a 96-well PDL-coated plate (Corning: 354461) at a density of 24,000 cells per well and cultured for 2 days. For starvation, the medium was replaced with EBM-2 medium (LONZA) containing 0.5% FBS (Thermo Fisher Scientific), 0.1% heparin (included with the above LONZA CC-3162), and 0.1% gentamicin (Nacalai), and the cells were cultured for 18 hours. Subsequently, Recombinant Human VEGF165a Protein (R&D Systems) or the peptide was added, and the cells were cultured in a CO2 incubator at 37°C. After 10 minutes of stimulation, cells were lysed using the Lysis Buffer included in the AlphaLISA SureFire Ultra VEGFR-2 (p-Tyr1175) Assay Kit (PerkinElmer) to lyse the cells. The procedure was performed according to the kit protocol, and signal detection was performed using a SpectraMax Paradigm multimode microplate reader (Molecular Devices). The obtained signals were analyzed using GraphPad Prism, and % activity was calculated with the maximum signal induced by VEGF165a set as 100% and the unstimulated control as 0%.
The VEGF165a concentration was evaluated at five points (0.08, 0.31, 1.25, 5, 20 nM) using 1/4-fold dilutions starting from 20 nM to determine the maximum value (100%). Peptide concentrations tested were: 3.2, 16, 80 nM for dimer structure number 1; 10, 100 nM for dimer structures numbers 2-41; and 1.25, 5, 20 nM for dimer structures numbers 42-57. […]
Peptides showing 50% or more activity at 10 nM were designated 2-A, those showing 50% or more activity at 100 nM were designated 2-B, and those showing 1% or more but less than 50% activity at 100 nM were designated 2-C.
Peptides showing 50% or more activity at 1.25 nM were designated 3-A, those showing 50% or more activity at 5 nM were designated 3-B, those showing 50% or more activity at 20 nM were designated 3-C, and those showing 1% or more but less than 50% activity at 20 nM were designated 3-D.

[1] = peptide 10, 100 nM (dimer structures 2-41)
[2] = peptide 1.25, 5, 20 nM (dimer structures 42-57)

| Structure (SMILES) | pVEGFR2 Assay Results [1] | pVEGFR2 Assay Results [2] |
| --- | --- | --- |
| CC(C)C[C@@H]1NC(=O)[C@H](CC(=O)O)NC(=O)[C@H](CC(=O)O)NC(=O)[C@H](CCCCNC(=O)CCOCCOCCOCCOCCOCCOCCOCCOCCOCCOCCOCCOCCOCCOCCOCCOCCOCCC(=O)NCCCC[C@@H]2NC(=O)[C@H](C(C)C)NC(=O)[C@H](CC(=O)O)NC(=O)[C@H](C3CCCCC3)NC(=O)[C@H](Cc3c[nH]c4ccccc34)NC(=O)[C@H](Cc3c[nH]c4ccccc34)NC(=O)CSC[C@@H](C(=O)NCC(N)=O)NC(=O)[C@H](CC(=O)O)NC(=O)[C@H](CCc3ccc(O)cc3)NC(=O)[C@H](Cc3ccccc3)NC(=O)[C@H](Cc3ccc(O)cc3)NC(=O)[C@H](CC(C)C)NC(=O)[C@H](CC(=O)O)NC(=O)[C@H](CC(=O)O)NC2=O)NC(=O)[C@H](C(C)C)NC(=O)[C@H](CC(=O)O)NC(=O)[C@H](C2CCCCC2)NC(=O)[C@H](Cc2c[nH]c3ccccc23)NC(=O)[C@H](Cc2c[nH]c3ccccc23)NC(=O)CSC[C@@H](C(=O)NCC(N)=O)NC(=O)[C@H](CC(=O)O)NC(=O)[C@H](CCc2ccc(O)cc2)NC(=O)[C@H](Cc2ccccc2)NC(=O)[C@H](Cc2ccc(O)cc2)NC1=O [compound 25] (I: {CH2CO}-WW[Chg]DVKDDLYF[hTyr]DCG-NH2 / II: {CH2CO}-WW[Chg]DVKDDLYF[hTyr]DCG-NH2; linker I:6-II:6 via CO(CH2)2(OCH2CH2)17CO; thioether I:N-I:14, II:N-II:14) | 2-C (1% or more but less than 50% activity at 100 nM) | – |
| CC(C)C[C@@H]1NC(=O)[C@H](CC(=O)O)NC(=O)[C@H](CC(=O)O)NC(=O)[C@H](CCCCNC(=O)CCOCCOCCOCCOCCOCCOCCOCCOCCOCCOCCOCCOCCOCCOCCOCCOCCOCCC(=O)NCCCC[C@@H]2NC(=O)[C@H](C(C)C)NC(=O)[C@H](CC(=O)O)NC(=O)[C@H](C(C)(C)C)NC(=O)[C@H](Cc3c[nH]c4ccccc34)NC(=O)[C@H](Cc3c[nH]c4ccccc34)NC(=O)CSC[C@@H](C(=O)NCC(N)=O)NC(=O)[C@H](CC(=O)O)NC(=O)[C@H](C(C)C)NC(=O)[C@H](Cc3ccc(NC(=N)N)cc3)NC(=O)[C@H](Cc3ccc(O)cc3)NC(=O)[C@H](CC(C)C)NC(=O)[C@H](CC(=O)O)NC(=O)[C@H](CC(=O)O)NC2=O)NC(=O)[C@H](C(C)C)NC(=O)[C@H](CC(=O)O)NC(=O)[C@H](C(C)(C)C)NC(=O)[C@H](Cc2c[nH]c3ccccc23)NC(=O)[C@H](Cc2c[nH]c3ccccc23)NC(=O)CSC[C@@H](C(=O)NCC(N)=O)NC(=O)[C@H](CC(=O)O)NC(=O)[C@H](C(C)C)NC(=O)[C@H](Cc2ccc(NC(=N)N)cc2)NC(=O)[C@H](Cc2ccc(O)cc2)NC1=O [compound 43] (I: {CH2CO}-WW[Tle]DVKDDLY[Phe(4-guanidino)]VDCG-NH2 / II: {CH2CO}-WW[Tle]DVKDDLY[Phe(4-guanidino)]VDCG-NH2; linker I:6-II:6 via CO(CH2)2(OCH2CH2)17CO; thioether I:N-I:14, II:N-II:14) | – | 3-C (50% or more activity at 20 nM) |
| CC(C)C[C@@H]1NC(=O)[C@H](CC(=O)O)NC(=O)[C@H](CC(=O)O)NC(=O)[C@H](CCCCNC(=O)CCOCCOCCOCCOCCOCCOCCOCCOCCOCCOCCOCCOCCOCCOCCOCCOCCOCCC(=O)NCCCC[C@@H]2NC(=O)[C@H](C(C)C)NC(=O)[C@H](CC(=O)O)NC(=O)[C@H](C(C)(C)C)NC(=O)[C@H](Cc3c[nH]c4ccccc34)NC(=O)[C@H](Cc3c[nH]c4ccccc34)NC(=O)CSC[C@@H](C(=O)NCC(N)=O)NC(=O)[C@H](CC(=O)O)NC(=O)[C@H](CCc3ccc(O)cc3)NC(=O)[C@H](Cc3ccc(NC(=N)N)cc3)NC(=O)[C@H](Cc3ccc(O)cc3)NC(=O)[C@H](CC(C)C)NC(=O)[C@H](CC(=O)O)NC(=O)[C@H](CC(=O)O)NC2=O)NC(=O)[C@H](C(C)C)NC(=O)[C@H](CC(=O)O)NC(=O)[C@H](C(C)(C)C)NC(=O)[C@H](Cc2c[nH]c3ccccc23)NC(=O)[C@H](Cc2c[nH]c3ccccc23)NC(=O)CSC[C@@H](C(=O)NCC(N)=O)NC(=O)[C@H](CC(=O)O)NC(=O)[C@H](CCc2ccc(O)cc2)NC(=O)[C@H](Cc2ccc(NC(=N)N)cc2)NC(=O)[C@H](Cc2ccc(O)cc2)NC1=O [compound 45] (I: {CH2CO}-WW[Tle]DVKDDLY[Phe(4-guanidino)][hTyr]DCG-NH2 / II: {CH2CO}-WW[Tle]DVKDDLY[Phe(4-guanidino)][hTyr]DCG-NH2; linker I:6-II:6 via CO(CH2)2(OCH2CH2)17CO; thioether I:N-I:14, II:N-II:14) | – | 3-C (50% or more activity at 20 nM) |
| CC(C)[C@@H]1NC(=O)[C@H](CC(=O)O)NC(=O)[C@H](C(C)(C)C)NC(=O)[C@H](Cc2c[nH]c3ccccc23)NC(=O)[C@H](Cc2c[nH]c3ccccc23)NC(=O)CSC[C@@H](C(=O)NCC(N)=O)NC(=O)[C@@H]2C[C@@H](O)CN2C(=O)[C@H](CCc2ccc(O)cc2)NC(=O)[C@H](Cc2ccc(NC(=N)N)cc2)NC(=O)[C@H](Cc2ccc(O)cc2)NC(=O)[C@H](CC(C)(C)C)NC(=O)[C@H](CC(=O)O)NC(=O)[C@H](CC(=O)O)NC(=O)[C@H](CCCCNC(=O)OCCOCCOCCOCCOCCOCCOCCOCCOCCOCCOCCOCCOC(=O)NCCCC[C@@H]2NC(=O)[C@H](C(C)C)NC(=O)[C@H](CC(=O)O)NC(=O)[C@H](C(C)(C)C)NC(=O)[C@H](Cc3c[nH]c4ccccc34)NC(=O)[C@H](Cc3c[nH]c4ccccc34)NC(=O)CSC[C@@H](C(=O)NCC(N)=O)NC(=O)[C@@H]3C[C@@H](O)CN3C(=O)[C@H](CCc3ccc(O)cc3)NC(=O)[C@H](Cc3ccc(NC(=N)N)cc3)NC(=O)[C@H](Cc3ccc(O)cc3)NC(=O)[C@H](CC(C)(C)C)NC(=O)[C@H](CC(=O)O)NC(=O)[C@H](CC(=O)O)NC2=O)NC1=O [compound 54] (I: {CH2CO}-WW[Tle]DVKDD[tBuAla]Y[Phe(4-guanidino)][hTyr][Hyp]CG-NH2 / II: {CH2CO}-WW[Tle]DVKDD[tBuAla]Y[Phe(4-guanidino)][hTyr][Hyp]CG-NH2; linker I:6-II:6 via X2; thioether I:N-I:14, II:N-II:14) | – | 3-B (50% or more activity at 5 nM) |
| CC(C)C[C@@H]1NC(=O)[C@H](CC(=O)O)NC(=O)[C@H](CC(=O)O)NC(=O)[C@H](CCCCNC(=O)CCOCCOCCOCCOCCOCCOCCOCCOCCOCCOCCOCCOCCOCCOCCOCCOCCOCCC(=O)NCCCC[C@@H]2NC(=O)[C@H](C(C)C)NC(=O)[C@H](CC(=O)O)NC(=O)[C@H](C(C)(C)C)NC(=O)[C@H](Cc3c[nH]c4ccccc34)NC(=O)[C@H](Cc3c[nH]c4ncccc34)NC(=O)CSC[C@@H](C(=O)NCC(N)=O)NC(=O)[C@H](CC(=O)O)NC(=O)[C@H](CCc3ccc(O)cc3)NC(=O)[C@H](Cc3ccccc3)NC(=O)[C@H](Cc3ccc(O)cc3)NC(=O)[C@H](CC(C)C)NC(=O)[C@H](CC(=O)O)NC(=O)[C@H](CC(=O)O)NC2=O)NC(=O)[C@H](C(C)C)NC(=O)[C@H](CC(=O)O)NC(=O)[C@H](C(C)(C)C)NC(=O)[C@H](Cc2c[nH]c3ccccc23)NC(=O)[C@H](Cc2c[nH]c3ncccc23)NC(=O)CSC[C@@H](C(=O)NCC(N)=O)NC(=O)[C@H](CC(=O)O)NC(=O)[C@H](CCc2ccc(O)cc2)NC(=O)[C@H](Cc2ccccc2)NC(=O)[C@H](Cc2ccc(O)cc2)NC1=O [compound 46] (I: {CH2CO}-[Trp(7-aza)]W[Tle]DVKDDLYF[hTyr]DCG-NH2 / II: {CH2CO}-[Trp(7-aza)]W[Tle]DVKDDLYF[hTyr]DCG-NH2; linker I:6-II:6 via CO(CH2)2(OCH2CH2)17CO; thioether I:N-I:14, II:N-II:14) | – | 3-C (50% or more activity at 20 nM) |
| CC(C)C[C@@H]1NC(=O)[C@H](CC(=O)O)NC(=O)[C@H](CC(=O)O)NC(=O)[C@H](CCCCNC(=O)CCOCCOCCOCCOCCOCCOCCOCCOCCOCCOCCOCCOCCOCCOCCOCCOCCOCCC(=O)NCCCC[C@@H]2NC(=O)[C@H](C(C)C)NC(=O)[C@H](CCC(N)=O)NC(=O)[C@H](C(C)(C)C)NC(=O)[C@H](Cc3c[nH]c4ccccc34)NC(=O)[C@H](Cc3c[nH]c4ccccc34)NC(=O)CSC[C@@H](C(=O)NCC(N)=O)NC(=O)[C@H](CC(=O)O)NC(=O)[C@H](CCc3ccc(O)cc3)NC(=O)[C@H](Cc3ccccc3)NC(=O)[C@H](Cc3ccc(O)cc3)NC(=O)[C@H](CC(C)C)NC(=O)[C@H](CC(=O)O)NC(=O)[C@H](CC(=O)O)NC2=O)NC(=O)[C@H](C(C)C)NC(=O)[C@H](CCC(N)=O)NC(=O)[C@H](C(C)(C)C)NC(=O)[C@H](Cc2c[nH]c3ccccc23)NC(=O)[C@H](Cc2c[nH]c3ccccc23)NC(=O)CSC[C@@H](C(=O)NCC(N)=O)NC(=O)[C@H](CC(=O)O)NC(=O)[C@H](CCc2ccc(O)cc2)NC(=O)[C@H](Cc2ccccc2)NC(=O)[C@H](Cc2ccc(O)cc2)NC1=O [compound 26] (I: {CH2CO}-WW[Tle]QVKDDLYF[hTyr]DCG-NH2 / II: {CH2CO}-WW[Tle]QVKDDLYF[hTyr]DCG-NH2; linker I:6-II:6 via CO(CH2)2(OCH2CH2)17CO; thioether I:N-I:14, II:N-II:14) | 2-B (50% or more activity at 100 nM) | – |
